Several values for one entry are separate records, joined by “and”; a condition that tells them apart may be missing. Identical values can stand only once.
Assays:
CypD = CypD (Homo sapiens, UniProt P30405); test: Chymotrypsin coupled prolyl-isomerase assay; settings: for prolyl-isomerase activity (raw dose-response value): CypD
CypB = molecular target: T1, CypB (Homo sapiens, UniProt P23284); test: biochemical; settings: for prolyl-isomerase activity (raw dose-response value): CypB
T1 construct: PPIB (UniProtKB Entry P23284: residues 34–216); His6 with TEV site (2BT vector leader) (N); made in house; host or cells: E. coli BL21(DE3)
T1 sequence (P23284 34-216): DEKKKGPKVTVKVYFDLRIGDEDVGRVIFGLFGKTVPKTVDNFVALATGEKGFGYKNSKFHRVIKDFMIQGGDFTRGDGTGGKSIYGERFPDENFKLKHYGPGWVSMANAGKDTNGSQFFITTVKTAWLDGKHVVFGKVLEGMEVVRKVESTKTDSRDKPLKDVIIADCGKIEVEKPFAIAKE
Experimental: (§1) Adapting a previously described protocol, with an Agilent Bravo Velocity 11 with a 384ST head, 90 µL assay buffer (25 mM HEPES pH 7.3, 100 mM NaCl, 0.01% Triton X-100) containing 5.28 nM cyclophilin was added into a flat, clear-bottom, black 384-well plate pre-chilled in a Corning CoolBox at 2–3 °C. Five microliters of compound pre-dissolved in 5% DMSO/assay buffer was then added to appropriate wells and incubated at 2–3 °C for 5 min. Five microliters of 0.5 mM α-chymotrypsin from bovine pancreas (Type II, lyophilized powder, Millipore-Sigma) in 20% 1 mM HCl/Assay Buffer was then added to each well and incubated at 2–3 °C for 5 min. The plate was then quickly transferred to a FLIPR Tetra High-Throughput Cellular Screening System (Molecular Devices). Using the internal liquid handling system of the FLIPR, 1 µL 0.5 mM Suc-AAPF-AMC (Chymotrypsin Substrate II, Millipore-Sigma) dissolved in 0.55 M LiCl/2,2,2-trifluoroethanol was added to each well, which was then mixed for 5 s, followed by immediate fluorescence measurements every 1 s for 330 s using a 360–380 nm excitation LED module and a 400–460 nm emission filter. Final concentrations of the plate include 5 nM cyclophilin, 0.25% DMSO, 25 µM α-chymotrypsin, 5 µM Suc-AAPF-AMC. Raw fluorescence data was analyzed by non-linear regression analysis with Prism v.9 by fitting one-phase association curves to each well. […] Rate constants calculated for each well (s^−1) were then normalized to substrate only (no prolyl-isomerase) and enzyme + substrate only controls. IC50 values were calculated as the value at which 50% inhibition was achieved on the non-linear regression fitted curve of each compound.

Cyp40 = Cyp40 (Homo sapiens, UniProt Q08752); test: Chymotrypsin coupled prolyl-isomerase assay; settings: for prolyl-isomerase activity (raw dose-response value): in s^-1
Chain of Cyp40 (Q08752 1-183): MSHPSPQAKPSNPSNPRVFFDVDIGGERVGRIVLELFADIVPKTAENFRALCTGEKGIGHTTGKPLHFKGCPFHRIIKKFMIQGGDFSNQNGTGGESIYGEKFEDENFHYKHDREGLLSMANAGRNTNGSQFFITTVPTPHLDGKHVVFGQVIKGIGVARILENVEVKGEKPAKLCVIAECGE
Experimental: as §1

NKTR = molecular target: T2, NKTR (Homo sapiens, UniProt P30414); test: Chymotrypsin coupled prolyl-isomerase assay; type: biochemical; settings: for prolyl-isomerase activity (raw dose-response value): NKTR
T2 construct: NKTR (UniProtKB Entry P30414: residues 7–179); host or cells: E. coli BL21(DE3)
T2 sequence (P30414 7-179): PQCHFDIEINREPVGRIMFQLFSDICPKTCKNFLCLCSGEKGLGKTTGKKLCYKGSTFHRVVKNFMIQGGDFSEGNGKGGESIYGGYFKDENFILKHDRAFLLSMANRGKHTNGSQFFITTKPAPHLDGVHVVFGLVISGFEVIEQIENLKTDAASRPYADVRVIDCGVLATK

PPIL1 = molecular target: T3, PPIL1 (Homo sapiens, UniProt Q9Y3C6); test: Chymotrypsin coupled prolyl-isomerase assay; type: biochemical
T3 construct: PPIL1 (UniProtKB Entry Q9Y3C6: residues 1–166); made in house; host or cells: E. coli BL21(DE3)
T3 sequence (Q9Y3C6 1-166): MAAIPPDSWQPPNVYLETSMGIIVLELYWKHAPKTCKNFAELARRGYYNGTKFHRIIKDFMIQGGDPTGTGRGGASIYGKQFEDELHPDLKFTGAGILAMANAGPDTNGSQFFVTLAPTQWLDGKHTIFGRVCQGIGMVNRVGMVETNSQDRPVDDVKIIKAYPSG

PPWD1 = molecular target: T4, PPWD1 (Homo sapiens, UniProt Q96BP3); test: Chymotrypsin coupled prolyl-isomerase assay; type: biochemical; settings: for prolyl-isomerase activity (raw dose-response value): in s^-1
T4 construct: PPWD1 (UniProtKB Entry Q96BP3: residues 473–646); host or cells: E. coli BL21(DE3)
T4 sequence (Q96BP3 473-646): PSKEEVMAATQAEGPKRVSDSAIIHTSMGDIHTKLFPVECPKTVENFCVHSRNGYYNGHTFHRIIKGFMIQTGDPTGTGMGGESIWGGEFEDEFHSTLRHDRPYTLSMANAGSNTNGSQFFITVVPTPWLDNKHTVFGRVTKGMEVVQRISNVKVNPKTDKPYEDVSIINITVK

Chain of CypD (P30405 45-207): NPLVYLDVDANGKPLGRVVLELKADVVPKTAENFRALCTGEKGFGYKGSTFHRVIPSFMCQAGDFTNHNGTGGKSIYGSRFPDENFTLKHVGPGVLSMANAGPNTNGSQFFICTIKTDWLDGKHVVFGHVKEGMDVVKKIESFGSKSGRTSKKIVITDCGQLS

`NCCOCCNC(=O)[C@@H]1CCNC(=O)/C=C/C(=O)N2CCC[C@](Cc3ccccc3)(C2)C(=O)N[C@@H](Cc2ccc(C(=O)c3ccccc3)cc2)C(=O)NCc2ccccc2CC(=O)N1` [Compound B1] was tested, and the IC50 (CypD) was 40 nM, the “prolyl-isomerase activity (raw dose-response value)” value (from here on “prolyl-isomerase activity”) (CypD; dose 0.00244141 µM) was 0.1167 and 0.1009 and 0.132 and the “prolyl-isomerase activity” value (CypD; dose 0.00488281 µM) was 0.1171 and 0.1006 and 0.1105. The “prolyl-isomerase activity” value (CypD; dose 0.00976562 µM) was 0.1045 and 0.1074 and 0.1165, the “prolyl-isomerase activity” value (CypD; dose 0.0195312 µM) was 0.0977 and 0.1005 and 0.09149 and the “prolyl-isomerase activity” value (CypD; dose 0.0390625 µM) was 0.07882 and 0.0807 and 0.08119. For the same compound, the “prolyl-isomerase activity” value (CypD; dose 0.078125 µM) was 0.05821 and 0.05418 and 0.05518, the “prolyl-isomerase activity” value (CypD; dose 0.15625 µM) was 0.03845 and 0.03512 and 0.03854 and the “prolyl-isomerase activity” value (CypD; dose 0.3125 µM) was 0.0261 and 0.02523 and 0.02516. For the same compound, the “prolyl-isomerase activity” value (CypD; dose 0.625 µM) was 0.0197 and 0.01788 and 0.01929, the “prolyl-isomerase activity” value (CypD; dose 1.25 µM) was 0.01434 and 0.01347 and 0.01416 and the “prolyl-isomerase activity” value (CypD; dose 2.5 µM) was 0.009932 and 0.009111 and 0.008108. For the same compound, the “prolyl-isomerase activity” value (CypB; dose 0.00114312 µM) was 0.08676 and 0.07612 and 0.1045, the “prolyl-isomerase activity” value (CypB; dose 0.00342935 µM) was 0.09293 and 0.08942 and 0.1133 and the “prolyl-isomerase activity” value (CypB; dose 0.0102881 µM) was 0.05857 and 0.07024 and 0.08235. For the same compound, the “prolyl-isomerase activity” value (CypB; dose 0.0308642 µM) was 0.06507 and 0.05219 and 0.06265, the “prolyl-isomerase activity” value (CypB; dose 0.0925926 µM) was 0.05131 and 0.04637 and 0.04858 and the “prolyl-isomerase activity” value (CypB; dose 0.277778 µM) was 0.03303 and 0.03453 and 0.03517. For the same compound, the “prolyl-isomerase activity” value (CypB; dose 0.833333 µM) was 0.03176 and 0.0219 and 0.02127, the “prolyl-isomerase activity” value (CypB; dose 2.5 µM) was 0.01492 and 0.01697 and 0.01392 and the IC50 (CypB; wild-type CypB, read-out: Wild-Type Cyclophilin Prolyl Isomerase Inhibition IC50 Values, CypB) was 30 nM. The “prolyl-isomerase activity” value (Cyp40; Cyp40, dose 0.0228624 µM) was 0.05537 and 0.05091 and 0.0526, the “prolyl-isomerase activity” value (Cyp40; Cyp40, dose 0.0685871 µM) was 0.04831 and 0.04914 and 0.04761 and the “prolyl-isomerase activity” value (Cyp40; Cyp40, dose 0.205761 µM) was 0.03428 and 0.03147 and 0.03197. For the same compound, the “prolyl-isomerase activity” value (Cyp40; Cyp40, dose 0.617284 µM) was 0.02396 and 0.01982 and 0.02092, the “prolyl-isomerase activity” value (Cyp40; Cyp40, dose 1.85185 µM) was 0.01751 and 0.01672 and 0.01432 and the “prolyl-isomerase activity” value (Cyp40; Cyp40, dose 5.55556 µM) was 0.0143 and 0.01339 and 0.01386. For the same compound, the “prolyl-isomerase activity” value (Cyp40; Cyp40, dose 16.6667 µM) was 0.01332 and 0.01439 and 0.01303, the “prolyl-isomerase activity” value (Cyp40; Cyp40, dose 50 µM) was 0.01384 and 0.01317 and 0.01466 and the IC50 (Cyp40; Wild-Type Cyclophilin Prolyl Isomerase Inhibition IC50 Values, Cyp40, wild-type Cyp40) was 50 nM. For the same compound, the “prolyl-isomerase activity” value (NKTR; dose 6.125 µM) was 0.03455 and 0.03286 and 0.03325, the “prolyl-isomerase activity” value (NKTR; dose 12.5 µM) was 0.03629 and 0.03152 and 0.03174 and the “prolyl-isomerase activity” value (NKTR; dose 25 µM) was 0.03462 and 0.03246 and 0.03111. For the same compound, the “prolyl-isomerase activity” value (NKTR; dose 50 µM) was 0.03275 and 0.03195 and 0.02857, the “prolyl-isomerase activity” value (NKTR; dose 100 µM) was 0.02401 and 0.02915 and 0.0269 and the IC50 (NKTR; wild-type NKTR, read-out: Wild-Type Cyclophilin Prolyl Isomerase Inhibition IC50 Values, NKTR) was > 100 µM. For the same compound, the “prolyl-isomerase activity” value (PPIL1; PPIL1, dose 0.0228624 µM) was 0.0901 and 0.08843 and 0.1022, the “prolyl-isomerase activity” value (PPIL1; PPIL1, dose 0.0685871 µM) was 0.07658 and 0.07564 and 0.08071 and the “prolyl-isomerase activity” value (PPIL1; PPIL1, dose 0.205761 µM) was 0.05553 and 0.06081 and 0.06346. For the same compound, the “prolyl-isomerase activity” value (PPIL1; PPIL1, dose 0.617284 µM) was 0.04442 and 0.03692 and 0.0407, the “prolyl-isomerase activity” value (PPIL1; PPIL1, dose 1.85185 µM) was 0.02604 and 0.02534 and 0.024 and the “prolyl-isomerase activity” value (PPIL1; PPIL1, dose 5.55556 µM) was 0.01797 and 0.0175 and 0.01949. For the same compound, the “prolyl-isomerase activity” value (PPIL1; PPIL1, dose 16.6667 µM) was 0.01539 and 0.0139 and 0.01238, the “prolyl-isomerase activity” value (PPIL1; PPIL1, dose 50 µM) was 0.01281 and 0.01627 and 0.01081 and the IC50 (PPIL1; wild-type PPIL1, read-out: Wild-Type Cyclophilin Prolyl Isomerase Inhibition IC50 Values, PPIL1) was 200 nM. The “prolyl-isomerase activity” value (PPWD1; PPWD1, dose 0.00244141 µM) was 0.05276 and 0.05431 and 0.05271, the “prolyl-isomerase activity” value (PPWD1; PPWD1, dose 0.00488281 µM) was 0.05268 and 0.05435 and 0.05318 and the “prolyl-isomerase activity” value (PPWD1; PPWD1, dose 0.00976562 µM) was 0.05613 and 0.05695 and 0.05468. The “prolyl-isomerase activity” value (PPWD1; PPWD1, dose 0.0195312 µM) was 0.05207 and 0.05349 and 0.04937, the “prolyl-isomerase activity” value (PPWD1; PPWD1, dose 0.0390625 µM) was 0.05208 and 0.05238 and 0.05082 and the “prolyl-isomerase activity” value (PPWD1; PPWD1, dose 0.078125 µM) was 0.04871 and 0.04927 and 0.04631. For the same compound, the “prolyl-isomerase activity” value (PPWD1; PPWD1, dose 0.15625 µM) was 0.04828 and 0.0525 and 0.04634, the “prolyl-isomerase activity” value (PPWD1; PPWD1, dose 0.3125 µM) was 0.04787 and 0.04701 and 0.04264 and the “prolyl-isomerase activity” value (PPWD1; PPWD1, dose 0.625 µM) was 0.04382 and 0.04097 and 0.03416. The “prolyl-isomerase activity” value (PPWD1; PPWD1, dose 1.25 µM) was 0.03009 and 0.02964 and 0.0254, the “prolyl-isomerase activity” value (PPWD1; PPWD1, dose 2.5 µM) was 0.02331 and 0.02391 and 0.0225 and the IC50 (PPWD1; wild-type PPWD1, read-out: Wild-Type Cyclophilin Prolyl Isomerase Inhibition IC50 Values, PPWD1) was 1400 nM.
